Results taken from ChEMBL document CHEMBL1201862, “PubChem BioAssay data set” (2004).
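These data come from cells grown in 96-well plates and exposed to compound for 48 hours at five concentrations. GI50 marks 50% less growth.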 Calls of active or inactive are those of the source. No stated cut-off is given here; in the data, active = GI50 up to about 1.1 µM and inactive = higher.

Tests used:
Assay in all cases: NCI-60 cell line screen, 48 h
CAKI-1 = test system: CAKI-1
CCRF-CEM = test system: CCRF-CEM
HCC 2998 = test system: HCC 2998
HCT-116 = test system: HCT-116
HL-60 = test system: HL-60
KM12 = test system: KM12
MOLT-4 = test system: MOLT-4
NCI-H23 = test system: NCI-H23
OVCAR-3 = test system: OVCAR-3
OVCAR-4 = test system: OVCAR-4
OVCAR-8 = test system: OVCAR-8
SF-268 = test system: SF-268
SK-MEL-28 = test system: SK-MEL-28
SK-MEL-5 = test system: SK-MEL-5
SNB-19 = test system: SNB-19
TK-10 = test system: TK-10
U-251 = test system: U-251

Measured: GI50

C#CCN(N=O)C(=O)NC(CCCNC(=O)OCc1ccccc1)C(=O)OCc1ccccc1 (stereo unspecified)
inactive: CAKI-1 28.1 µM | CCRF-CEM 22.8 µM | HCC 2998 > 100 µM | HCT-116 > 100 µM | HL-60 20.1 µM | KM12 > 100 µM | MOLT-4 24.8 µM | NCI-H23 > 100 µM | OVCAR-3 > 100 µM | OVCAR-4 > 100 µM | OVCAR-8 43.4 µM | SF-268 18.2 µM | SK-MEL-28 24.9 µM | SK-MEL-5 > 100 µM | SNB-19 > 100 µM | TK-10 > 100 µM | U-251 > 100 µM

NC(=O)/C(=N\NC(=O)C[n+]1ccccc1)C1NC(=O)NC1=O (stereo unspecified)
inactive: CAKI-1 > 100 µM | CCRF-CEM > 100 µM | HCC 2998 > 100 µM | HCT-116 > 100 µM | HL-60 > 100 µM | KM12 > 100 µM | MOLT-4 > 100 µM | NCI-H23 > 100 µM | OVCAR-3 > 100 µM | OVCAR-4 > 100 µM | OVCAR-8 > 100 µM | SF-268 > 100 µM | SK-MEL-28 > 100 µM | SK-MEL-5 > 100 µM | SNB-19 > 100 µM | TK-10 > 100 µM

CCCCN(CC)CC(C(C)=O)c1c(O)c2ccccc2oc1=O (stereo unspecified)
inactive: CAKI-1 > 100 µM | CCRF-CEM > 100 µM | HCC 2998 > 100 µM | HCT-116 > 100 µM | HL-60 > 100 µM | KM12 > 100 µM | MOLT-4 > 100 µM | NCI-H23 15.4 µM | OVCAR-3 > 100 µM | OVCAR-4 > 100 µM | OVCAR-8 > 100 µM | SF-268 > 100 µM | SK-MEL-28 > 100 µM | SK-MEL-5 > 100 µM | SNB-19 > 100 µM | TK-10 > 100 µM | U-251 > 100 µM

COc1cc(/C=C2\NC(=S)C3Cc4c(OC)c(C)c(OC)c(OC)c4C2N3C)c(OC)c(C)c1OC (stereo unspecified)
inactive: CAKI-1 58.1 µM | CCRF-CEM 38.7 µM | HCC 2998 69 µM | HCT-116 33.7 µM | HL-60 25.2 µM | KM12 92.9 µM | MOLT-4 21.2 µM | NCI-H23 86.1 µM | OVCAR-3 31 µM | OVCAR-4 > 100 µM | OVCAR-8 32.5 µM | SF-268 95.3 µM | SK-MEL-28 > 100 µM | SK-MEL-5 24.5 µM | SNB-19 65.3 µM | TK-10 46 µM | U-251 45.1 µM

Cc1ccc(NCC(=O)N2CC(=O)Nc3ccccc32)c(C)c1
inactive: CAKI-1 > 100 µM | CCRF-CEM > 100 µM | HCC 2998 > 100 µM | HCT-116 > 100 µM | HL-60 > 100 µM | KM12 > 100 µM | MOLT-4 > 100 µM | NCI-H23 > 100 µM | OVCAR-3 > 100 µM | OVCAR-4 > 100 µM | OVCAR-8 > 100 µM | SF-268 > 100 µM | SK-MEL-28 > 100 µM | SK-MEL-5 > 100 µM | SNB-19 > 100 µM | TK-10 > 100 µM | U-251 > 100 µM

O=C(O)C(CS)Nc1c2ccccc2[n+]([O-])c2ccccc12 (stereo unspecified)
inactive: CAKI-1 > 100 µM | CCRF-CEM > 100 µM | HCC 2998 > 100 µM | HCT-116 92 µM | HL-60 50.2 µM | KM12 > 100 µM | MOLT-4 > 100 µM | NCI-H23 87.7 µM | OVCAR-3 > 100 µM | OVCAR-4 > 100 µM | OVCAR-8 > 100 µM | SF-268 > 100 µM | SK-MEL-28 > 100 µM | SK-MEL-5 76 µM | SNB-19 > 100 µM | TK-10 > 100 µM | U-251 > 100 µM

COc1cc2c(cc1OC)[C@H]1C(COC(=O)c3ccccc3)CS/C(=N/c3ccccc3)N1CC2 (stereo partly specified)
inactive: CAKI-1 > 100 µM | CCRF-CEM > 100 µM | HCC 2998 > 100 µM | HCT-116 5.68 µM | HL-60 5.31 µM | KM12 > 100 µM | MOLT-4 2.91 µM | NCI-H23 5.9 µM | OVCAR-3 > 100 µM | OVCAR-4 5.15 µM | OVCAR-8 > 100 µM | SF-268 8.69 µM | SK-MEL-28 > 100 µM | SK-MEL-5 > 100 µM | SNB-19 21 µM | TK-10 81.1 µM | U-251 24.3 µM

C[C@@H]1C[C@@H]2C(=O)N(c3ccccc3)C(=O)[C@@H]2c2[nH]c3ccc(Br)cc3c21
inactive: CAKI-1 27.4 µM | CCRF-CEM > 100 µM | HCC 2998 51.1 µM | HCT-116 30.2 µM | HL-60 26.8 µM | KM12 25.2 µM | MOLT-4 25 µM | NCI-H23 89.7 µM | OVCAR-3 23.7 µM | OVCAR-4 21.2 µM | OVCAR-8 21.8 µM | SF-268 41.5 µM | SK-MEL-28 > 100 µM | SK-MEL-5 50.1 µM | SNB-19 29.6 µM | TK-10 68.9 µM | U-251 13.5 µM

COc1ccccc1/C=N/C12CC3CC(CC(C3)C1)C2
inactive: CAKI-1 > 100 µM | CCRF-CEM > 100 µM | HCC 2998 > 100 µM | HCT-116 > 10 µM | HL-60 73.6 µM | KM12 > 100 µM | MOLT-4 > 100 µM | NCI-H23 > 100 µM | OVCAR-3 > 100 µM | OVCAR-4 > 100 µM | OVCAR-8 > 100 µM | SF-268 > 100 µM | SK-MEL-28 > 100 µM | SK-MEL-5 81.8 µM | SNB-19 > 100 µM | TK-10 > 100 µM | U-251 > 100 µM

C1=Cc2nc1c(-c1ccncc1)c1ccc([n-]1)c(-c1ccncc1)c1nc(c(-c3ccncc3)c3ccc([n-]3)c2-c2ccncc2)C=C1.[Zn+2]
inactive: CAKI-1 > 100 µM | CCRF-CEM > 100 µM | HCC 2998 > 100 µM | HCT-116 > 100 µM | HL-60 > 100 µM | KM12 > 100 µM | MOLT-4 > 100 µM | NCI-H23 > 100 µM | OVCAR-3 > 100 µM | OVCAR-4 > 100 µM | OVCAR-8 > 100 µM | SF-268 > 100 µM | SK-MEL-28 > 100 µM | SK-MEL-5 > 100 µM | SNB-19 > 100 µM | TK-10 > 100 µM | U-251 > 100 µM

CCOC(=O)C(Cc1cn(S(=O)(=O)c2ccccc2)c2ccccc12)(NC(C)=O)C(=O)OCC
inactive: CAKI-1 49.1 µM | CCRF-CEM 25.1 µM | HCC 2998 34 µM | HCT-116 24.7 µM | HL-60 16.5 µM | KM12 29.4 µM | MOLT-4 19 µM | NCI-H23 26.3 µM | OVCAR-3 34 µM | OVCAR-4 33.3 µM | OVCAR-8 33 µM | SF-268 40 µM | SK-MEL-28 42.6 µM | SK-MEL-5 15.8 µM | SNB-19 34.8 µM | TK-10 65.5 µM | U-251 40.1 µM
